From PMC6272992, “Synthesis and Cytotoxic Effect of Some Novel 1,2-Dihydropyridin-3-carbonitrile and Nicotinonitrile Derivatives” (Molecules, 2015)
Values after ≈ are worked out from the molar mass of the structure shown.

How the values were obtained:
[1] = test system: WI 38 (normal fibroblast cells); assay: SRB cell growth assay, normal cells WI 38; assay type: cell-based, human; conditions: 48 h exposure, non-cytotoxic = IC50 > 100 μg/mL; for IC50: Homo sapiens
Description: (§1) The in vitro cytotoxic activity the newly synthesized compounds against human breast cell line (MCF7), non-small cell lung cancer NCI-H460, CNS cancer SF-268 and WI 38 (normal fibroblast cells) were evaluated using doxorubicin as the reference drug, according to the method reported by Skehan et al..
(§2) The newly synthesized compounds were evaluated in vitro against three human cancer cell lines; which are MCF-7 (breast adenocarcinoma), NCI-H460 (non-small cell lung cancer) and SF-268 (CNS cancer), and WI 38 (normal fibroblast cells) were used in this study. MCF-7 was obtained from the European Collection of Cell Cultures (ECACC, Salisbury, UK) but NCI-H460, SF-268 and WI 38 were kindly provided by the National Cancer Institute (NCI, Cairo, Egypt). They grow as monolayers routinely maintained in RPMI-1640 medium supplemented with 5% heat inactivated fetal bovine serum (FBS), 2 mM glutamine and antibiotics (penicillin 100 U/mL, streptomycin 100 µg/mL), at 37 °C in a humidified atmosphere containing 5% CO2. Exponentially growing cells were obtained by plating 1.5 × 10^5 cells/mL for MCF-7 and SF-268, and 0.75 × 10^4 cells/mL for NCI-H460 followed by 24 h of incubation. The effect of the vehicle solvent (DMSO) on the growth of these cell lines was evaluated in all experiments by exposing untreated control cells to the maximum concentration (0.5%) of DMSO used in each assay.
(§3) The effect of compounds on the in vitro growth of human tumor cell lines were evaluated according to the procedure adopted by the National Cancer Institute (NCI, […], USA) in the “In vitro Anticancer Drug Discovery Screen” that uses the protein-binding dye sulforhodamine B (SRB) to assess cell growth. In the assay protocol, all cells were incubated at 37 °C under humidified atmosphere containing 5% CO2. Briefly, exponentially cells growing in 96-well plates were then exposed for 48 h to five serial concentrations of each compound, starting from a maximum concentration of 150 μg/mL. Following this exposure period, adherent cells were fixed, washed and stained. The bound stain was solubilized and the absorbance was measured at 492 nm in a Power Wave XS plate reader (Bio-Tek Instruments Inc., Winston, NC, USA). For each test compound and cell line, a dose response curve was obtained and the inhibitory concentration of 50% (IC50), corresponding to the concentration of the compounds that inhibited 50% of the net cell growth was calculated as described elsewhere. Doxorubicin was used as a positive control and tested in the same manner.

[2] = test system: MCF-7 (breast adenocarcinoma); assay: SRB cancer cell growth assay, MCF-7; assay type: cell-based, human; design: key to activity class MCF-7: highly active; b: moderately active; weakly active; conditions: for IC50: Homo sapiens, MCF7, MCF-7, 48 h exposure, SRB, read-out: IC50 (μg/mL) MCF-7
Description: as §1, §2, §3

[3] = test system: NCI-H460 (non-small cell lung cancer); assay: SRB cancer cell growth assay, NCI-H460; assay type: cell-based, human; design: key to activity class NCI-H460: highly active; b: moderately active; weakly active; conditions: for IC50: Homo sapiens, NCI-H460, 48 h exposure, SRB, read-out: IC50 (μg/mL) NCI-H460
Description: as §1, §2, §3

[4] = test system: SF-268 (CNS cancer); assay: SRB cancer cell growth assay, SF-268; assay type: cell-based, human; design: key to activity class SF-268: highly active; b: moderately active; weakly active; conditions: for IC50: Homo sapiens, SF-268, 48 h exposure, SRB, read-out: IC50 (μg/mL) SF-268
Description: as §1, §2, §3

| IC50 [2] [µg/mL] | IC50 [3] [µg/mL] | melting point [°C] | IC50 [4] [µg/mL] | Structure (SMILES) | IC50 [1] [µg/mL] | activity class MCF-7 [2] | activity class NCI-H460 [3] | activity class SF-268 [4] | IC50 (μg/mL) WI 38 [1] |
| --- | --- | --- | --- | --- | --- | --- | --- | --- | --- |
| 30.6 ± 1.1 (≈ 56.9 µM) | 30.7 ± 1.64 (≈ 57.1 µM) | 219 to 221 | 28.2 ± 8.83 (≈ 52.4 µM) | N#Cc1c(-c2ccc(F)cc2)cc(-c2ccc(Cl)cc2Cl)nc1OCC(=O)NN=Cc1ccc(F)cc1 [Compound 10, 2-[3-Cyano-6-(2,4-dichlorophenyl)-4-(4-fluorophenyl)pyridin-2-yloxy]-N′-(4-fluorobenzylidene)-acetohydrazide] | 19.8 ± 2.68 (≈ 36.8 µM) | b | b | b |  |
| 67 ± 6.23 (≈ 180 µM) | 56.8 ± 8.2 (≈ 152 µM) | 309 to 311 | 69 ± 9.15 (≈ 185 µM) | Nc1nnc2[nH]c(-c3ccc(Cl)cc3Cl)cc(-c3ccc(F)cc3)c1-2 [Compound 4, 6-(2,4-Dichlorophenyl)-4-(4-fluorophenyl)-7H-pyrazolo[3,4-b]pyridin-3-amine] | 18.6 ± 1.21 (≈ 49.9 µM) | c | c | c |  |
|  |  | 181 to 182 |  | N#Cc1c(-c2ccc(F)cc2)cc(-c2ccc(Cl)cc2Cl)nc1Cl [Compound 11, 2-Chloro-6-(2,4-dichlorophenyl)-4-(4-fluorophenyl)nicotinonitrile] |  |  |  |  |  |
| 0.66 ± 0.21 (≈ 1.31 µM) | 0.9 ± 0.12 (≈ 1.79 µM) | 268 to 269 | 2.34 ± 0.51 (≈ 4.66 µM) | N#Cc1c(-c2ccc(F)cc2)cc(-c2ccc(Cl)cc2Cl)nc1NN=C1C(=O)Nc2ccccc21 [Compound 20, 6-(2,4-Dichlorophenyl)-4-(4-fluorophenyl)-2-[2-(2-oxoindolin-3-ylidene)hydrazinyl]nicotinonitrile] | 72.5 ± 2.4 (≈ 144 µM) | a | a | a |  |
|  |  | 281 to 283 |  | N#Cc1c(-c2ccc(F)cc2)cc(-c2ccc(Cl)cc2Cl)nc1NN=Cc1ccc([N+](=O)[O-])cc1 [Compound 21b, 6-(2,4-Dichlorophenyl)-4-(4-fluorophenyl)-2-[2-(4-nitrobenzylidene)hydrazinyl]nicotinonitrile] |  |  |  |  |  |
|  |  | 142 to 143 |  | N#Cc1c(-c2ccc(F)cc2)cc(-c2ccc(Cl)cc2Cl)nc1NCCc1ccccc1 [Compound 14, 6-(2,4-Dichlorophenyl)-4-(4-fluorophenyl)-2-(phenylethylamino)nicotinonitrile] |  |  |  |  |  |
| 0.04 ± 0.008 (≈ 0.0736 µM) | 0.09 ± 0.008 (≈ 0.166 µM) |  | 0.09 ± 0.007 (≈ 0.166 µM) | COc1cccc2c1C(=O)c1c(O)c3c(c(O)c1C2=O)C[C@@](O)(C(=O)CO)C[C@@H]3O[C@H]1C[C@H](N)[C@H](O)[C@H](C)O1 [Doxorubicin, reference compound] |  |  |  |  | non-cytotoxic |
| 0.01 ± 0.002 (≈ 0.0246 µM) | 0.02 ± 0.001 (≈ 0.0491 µM) | 99 to 101 | 0.01 ± 0.003 (≈ 0.0246 µM) | N#Cc1c(-c2ccc(F)cc2)cc(-c2ccc(Cl)cc2Cl)nc1C(C#N)C#N [Compound 16, 2-[3-Cyano-6-(2,4-dichlorophenyl)-4-(4-fluorophenyl)pyridin-2-yl]malononitrile] | > 100 | a | a | a | non-cytotoxic |
| 16.3 ± 1.87 (≈ 33 µM) | 18.9 ± 1.03 (≈ 38.4 µM) | 149 to 151 | 23.2 ± 4.12 (≈ 47.2 µM) | N#Cc1c(-c2ccc(F)cc2)cc(-c2ccc(Cl)cc2Cl)nc1NCc1ccc2c(c1)OCO2 [Compound 13, 2-(Benzo[d][1,3]dioxol-5-ylmethylamino)-6-(2,4-dichlorophenyl)-4-(4-fluorophenyl)nicotinonitrile] | 20.4 ± 4.99 (≈ 41.4 µM) | b | b | b |  |
| 20.2 ± 2.26 (≈ 46 µM) | 0.01 ± 0.003 (≈ 0.0228 µM) | 246 to 248 | 20.2 ± 3.26 (≈ 46 µM) | CC1=NN(c2nc(-c3ccc(Cl)cc3Cl)cc(-c3ccc(F)cc3)c2C#N)C(=O)C1 [Compound 18, 6-(2,4-Dichlorophenyl)-4-(4-fluorophenyl)-2-(3-methyl-5-oxo-4,5-dihydro-1H-pyrazol-1-yl) nicotinonitrile] | 29.8 ± 4.88 (≈ 67.9 µM) | b | a | b |  |
| 0.61 ± 0.082 (≈ 1.63 µM) | 0.86 ± 0.02 (≈ 2.3 µM) | 223 to 224 | 2.19 ± 0.83 (≈ 5.87 µM) | N#Cc1c(-c2ccc(F)cc2)cc(-c2ccc(Cl)cc2Cl)nc1NN [Compound 17, 6-(2,4-Dichlorophenyl)-4-(4-fluorophenyl)-2-hydrazinylnicotinonitrile] | 64.1 ± 1.22 (≈ 172 µM) | a | a | a |  |
|  |  | 112 to 114 |  | N#Cc1c(-c2ccc(F)cc2)cc(-c2ccc(Cl)cc2Cl)nc1N1CCOCC1 [Compound 15b, 6-(2,4-Dichlorophenyl)-4-(4-fluorophenyl)-2-morpholinonicotinonitrile] |  |  |  |  |  |
|  |  | 276 to 277 |  | N#Cc1c(-c2ccc(F)cc2)cc(-c2ccc(Cl)cc2Cl)[nH]c1=O [Compound 2, 6-(2,4-Dichlorophenyl)-4-(4-fluorophenyl)-2-oxo-1,2-dihydropyridin-3-carbonitrile] |  |  |  |  |  |
|  |  | 158 to 159 |  | N#Cc1c(-c2ccc(F)cc2)cc(-c2ccc(Cl)cc2Cl)nc1NCc1ccccc1 [Compound 12, 2-(Benzylamino)-6-(2,4-dichlorophenyl)-4-(4-fluorophenyl)nicotinonitrile] |  |  |  |  |  |
|  |  | 296 to 298 |  | N#Cc1c(-c2ccc(F)cc2)cc(-c2ccc(Cl)cc2Cl)nc1NN=Cc1cccc2ccccc12 [Compound 21e, 6-(2,4-Dichlorophenyl)-4-(4-fluorophenyl)-2-[2-(naphthalen-1-ylmethylene)hydrazinyl] nicotinonitrile] |  |  |  |  |  |
| 2.41 ± 1.24 (≈ 5.59 µM) | 2.3 ± 2.86 (≈ 5.33 µM) | 197 to 199 | 0.46 ± 0.06 (≈ 1.07 µM) | N#Cc1c(-c2ccc(F)cc2)cc(-c2ccc(Cl)cc2Cl)nc1OCC(=O)NN [Compound 9, 2-[3-Cyano-6-(2,4-dichlorophenyl)-4-(4-fluorophenyl)pyridin-2-yloxy]acetohydrazide] | 62.2 ± 2.02 (≈ 144 µM) | a | a | a |  |
| 36.2 ± 2.14 (≈ 85.2 µM) | 74 ± 3.65 (≈ 174 µM) | 188 to 189 | 62.1 ± 3.61 (≈ 146 µM) | N#Cc1c(N)c2c(-c3ccc(F)cc3)cc(-c3ccc(Cl)cc3Cl)nc2[nH]c1=O [Compound 7, 4-Amino-7-(2,4-dichlorophenyl)-5-(4-fluorophenyl)-2-oxo-1,2-dihydro-1,8-naphthyridine-3-carbonitrile] | 23 ± 8.2 (≈ 54 µM) | c | c | c |  |
| 75.2 ± 13.9 (≈ 172 µM) | 62.3 ± 10.3 (≈ 142 µM) | 287 to 289 | 10.4 ± 4.19 (≈ 23.8 µM) | Cc1cc(C)n(-c2nc(-c3ccc(Cl)cc3Cl)cc(-c3ccc(F)cc3)c2C#N)n1 [Compound 19, 6-(2,4-Dichlorophenyl)-2-(3,5-dimethyl-1H-pyrazol-1-yl)-4-(4-fluorophenyl)nicotinonitrile] | 50.2 ± 10.2 (≈ 115 µM) | c | c | a |  |
| 0.02 ± 0.002 (≈ 0.0449 µM) | 0.01 ± 0.002 (≈ 0.0225 µM) | 119 to 121 | 0.02 ± 0.045 (≈ 0.0449 µM) | CCOC(=O)COc1nc(-c2ccc(Cl)cc2Cl)cc(-c2ccc(F)cc2)c1C#N [Compound 8, Ethyl 2-[3-cyano-6-(2,4-dichlorophenyl)-4-(4-fluorophenyl)pyridin-2-yloxy]acetate] | > 100 | a | a | a | non-cytotoxic |
|  |  | 226 to 228 |  | N#Cc1c(-c2ccc(F)cc2)cc(-c2ccc(Cl)cc2Cl)nc1NN=Cc1ccccc1Br [Compound 21a, 2-[2-(2-Bromobenzylidene)hydrazinyl]-6-(2,4-dichlorophenyl)-4-(4-fluorophenyl)nicotinonitrile] |  |  |  |  |  |
